Experimental data reported in ChEMBL document CHEMBL1201862, “PubChem BioAssay data set” (2004).
Active and inactive are the calls of the source.

What was measured:
[1] = biological target: T1, Sentrin-specific protease 8 (Homo sapiens, UniProt Q96LD8); type: functional
T1 sequence (Q96LD8 whole entry): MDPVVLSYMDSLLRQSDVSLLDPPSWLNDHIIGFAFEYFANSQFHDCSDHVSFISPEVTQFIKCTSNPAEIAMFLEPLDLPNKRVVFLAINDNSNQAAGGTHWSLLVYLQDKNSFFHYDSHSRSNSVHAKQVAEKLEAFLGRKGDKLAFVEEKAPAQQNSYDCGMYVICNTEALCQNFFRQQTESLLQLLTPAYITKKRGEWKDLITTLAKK

[2] = biological target: T1, Sentrin-specific protease 8; type: functional; remark: listed apart in the source
[3] = activation of miR-122 Renilla sensor silencing – cell-based, Huh7 psiCHECK-miR122, Renilla luciferase, cherry-picked, dose response (AID 651956); type: functional;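 further: huh7 hepatoma cells stably carrying a psiCHECK-2 miR-122 sensor plasmid; renilla luciferase signal reporting endogenous miR-122 activity after 48 h compound exposure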
[4] = biological target: T2, DNA repair and recombination protein RAD54-like (Homo sapiens, UniProt Q92698); test: RAD54 Holliday junction migration blockers – biochemical, fluorescence, cherry-picked samples, dose series, confirmation (AID 651657); type: functional
T2 sequence (Q92698 whole entry): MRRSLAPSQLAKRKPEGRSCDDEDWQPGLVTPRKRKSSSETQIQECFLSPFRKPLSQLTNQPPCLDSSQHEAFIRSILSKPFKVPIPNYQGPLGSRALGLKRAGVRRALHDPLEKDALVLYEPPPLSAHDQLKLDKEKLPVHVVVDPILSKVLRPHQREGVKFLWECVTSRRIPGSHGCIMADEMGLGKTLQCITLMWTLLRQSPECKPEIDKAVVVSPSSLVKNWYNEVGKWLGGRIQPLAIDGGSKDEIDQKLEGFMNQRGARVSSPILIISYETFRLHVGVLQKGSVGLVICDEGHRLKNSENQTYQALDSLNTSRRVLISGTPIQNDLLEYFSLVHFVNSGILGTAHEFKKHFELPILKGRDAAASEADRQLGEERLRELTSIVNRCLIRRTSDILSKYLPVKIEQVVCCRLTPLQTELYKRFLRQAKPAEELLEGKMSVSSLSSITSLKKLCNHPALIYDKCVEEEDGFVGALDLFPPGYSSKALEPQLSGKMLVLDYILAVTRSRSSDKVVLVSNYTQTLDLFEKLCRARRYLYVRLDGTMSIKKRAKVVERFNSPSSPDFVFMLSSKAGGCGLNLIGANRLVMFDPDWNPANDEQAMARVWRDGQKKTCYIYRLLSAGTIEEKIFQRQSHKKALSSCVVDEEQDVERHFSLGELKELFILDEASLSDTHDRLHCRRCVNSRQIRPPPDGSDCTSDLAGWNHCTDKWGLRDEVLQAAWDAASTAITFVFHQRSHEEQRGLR

[5] = biological target: T3, DNA repair protein RAD52 homolog (Homo sapiens, UniProt P43351); type: functional, biochemical
T3 sequence (P43351 whole entry): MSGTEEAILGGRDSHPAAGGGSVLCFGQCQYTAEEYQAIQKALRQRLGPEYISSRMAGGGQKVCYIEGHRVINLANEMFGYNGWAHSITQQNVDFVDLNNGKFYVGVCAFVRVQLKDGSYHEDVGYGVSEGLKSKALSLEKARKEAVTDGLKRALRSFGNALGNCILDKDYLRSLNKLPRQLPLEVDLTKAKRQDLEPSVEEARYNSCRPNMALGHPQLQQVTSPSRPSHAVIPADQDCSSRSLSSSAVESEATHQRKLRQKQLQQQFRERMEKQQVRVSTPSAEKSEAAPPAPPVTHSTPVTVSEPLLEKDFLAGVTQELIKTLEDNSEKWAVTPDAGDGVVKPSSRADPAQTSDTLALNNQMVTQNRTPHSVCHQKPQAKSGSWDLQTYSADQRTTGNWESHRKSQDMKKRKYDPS

[6] = THP-1 cell cytotoxicity, dose response, cytotoxicity control for non-replicating M. tuberculosis project (AID 489025); type: functional
[7] = biological target: T4, Short transient receptor potential channel 4 (Mus musculus, UniProt Q9QUQ5); test: calcium entry via TRPC4 opening agents – cell-based, HEK293 TRPC4/mu-opioid, Fluo-4 calcium, dose response (AID 434937); type: functional
T4 sequence (Q9QUQ5 whole entry): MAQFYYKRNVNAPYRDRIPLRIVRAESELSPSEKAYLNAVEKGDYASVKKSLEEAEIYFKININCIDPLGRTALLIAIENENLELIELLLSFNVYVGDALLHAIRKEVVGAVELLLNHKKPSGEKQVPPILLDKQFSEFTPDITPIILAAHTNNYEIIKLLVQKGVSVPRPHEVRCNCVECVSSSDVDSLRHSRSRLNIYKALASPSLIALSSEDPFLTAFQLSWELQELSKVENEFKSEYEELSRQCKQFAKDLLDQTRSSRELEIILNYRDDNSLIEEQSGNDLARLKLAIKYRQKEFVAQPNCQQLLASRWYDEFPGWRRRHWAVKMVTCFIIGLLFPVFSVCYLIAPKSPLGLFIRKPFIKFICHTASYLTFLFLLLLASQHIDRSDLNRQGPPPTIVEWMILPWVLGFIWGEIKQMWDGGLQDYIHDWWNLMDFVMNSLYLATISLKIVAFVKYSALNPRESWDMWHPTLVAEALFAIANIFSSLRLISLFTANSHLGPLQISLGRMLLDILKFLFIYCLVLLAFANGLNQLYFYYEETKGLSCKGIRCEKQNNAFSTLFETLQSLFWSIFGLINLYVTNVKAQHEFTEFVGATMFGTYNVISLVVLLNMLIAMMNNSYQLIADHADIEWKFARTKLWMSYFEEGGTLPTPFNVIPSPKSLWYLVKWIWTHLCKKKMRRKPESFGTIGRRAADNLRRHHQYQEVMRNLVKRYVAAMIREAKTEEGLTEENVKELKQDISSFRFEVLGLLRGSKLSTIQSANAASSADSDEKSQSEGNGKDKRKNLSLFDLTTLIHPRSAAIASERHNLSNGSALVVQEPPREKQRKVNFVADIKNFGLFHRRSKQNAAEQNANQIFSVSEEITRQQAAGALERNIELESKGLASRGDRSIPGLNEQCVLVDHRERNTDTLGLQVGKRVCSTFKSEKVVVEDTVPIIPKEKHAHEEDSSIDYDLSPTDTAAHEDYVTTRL

[8] = cytotoxicity toward MDA-MB-231 breast cancer cells – cell-based, CellTiter-Glo luminescence, cherry-pick, cytotoxicity control for RAD54 inhibitor project, dose response (AID 651692); type: functional
[9] = Vero E6 cell cytotoxicity, dose response, cytotoxicity control for non-replicating M. tuberculosis project, secondary assay (AID 492998); type: functional, VeroE6; conditions: Vero C1008
[10] = viability loss in HeLa cells – cytotoxicity control for MgcRacGAP inhibitor project, dose response (AID 624300); type: functional
[11] = HepG2 cell cytotoxicity, dose response, cytotoxicity control for non-replicating M. tuberculosis project (AID 489018); type: functional; conditions: Mycobacterium tuberculosis
[12] = NIH3T3 cell viability loss – ATP luminescence, mouse fibroblasts, counter-screen, dose response (AID 2010); type: functional, cell-based;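 further: cells exposed to compound for about 90 hours before reading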
[13] = Trypanosoma cruzi growth suppression in host cells – NIH3T3 host cells, beta-gal luminescence, confirmation (AID 2044); type: functional, cell-based;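 further: intracellular parasites grown in NIH/3T3 mouse fibroblasts as host cells; luminescent beta-galactosidase reporter signal from transgenic T. cruzi replicating inside host cells; inhibitors lower the luminescence signal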
[14] = biological target: T5, Rac GTPase-activating protein 1 (Homo sapiens, UniProt Q9H0H5); test: blockers of MgcRacGAP-driven Rac1 GTP hydrolysis – biochemical, ADP Hunter fluorescence, primary and confirmatory, confirmation (AID 624330); type: functional
T5 sequence (Q9H0H5 whole entry): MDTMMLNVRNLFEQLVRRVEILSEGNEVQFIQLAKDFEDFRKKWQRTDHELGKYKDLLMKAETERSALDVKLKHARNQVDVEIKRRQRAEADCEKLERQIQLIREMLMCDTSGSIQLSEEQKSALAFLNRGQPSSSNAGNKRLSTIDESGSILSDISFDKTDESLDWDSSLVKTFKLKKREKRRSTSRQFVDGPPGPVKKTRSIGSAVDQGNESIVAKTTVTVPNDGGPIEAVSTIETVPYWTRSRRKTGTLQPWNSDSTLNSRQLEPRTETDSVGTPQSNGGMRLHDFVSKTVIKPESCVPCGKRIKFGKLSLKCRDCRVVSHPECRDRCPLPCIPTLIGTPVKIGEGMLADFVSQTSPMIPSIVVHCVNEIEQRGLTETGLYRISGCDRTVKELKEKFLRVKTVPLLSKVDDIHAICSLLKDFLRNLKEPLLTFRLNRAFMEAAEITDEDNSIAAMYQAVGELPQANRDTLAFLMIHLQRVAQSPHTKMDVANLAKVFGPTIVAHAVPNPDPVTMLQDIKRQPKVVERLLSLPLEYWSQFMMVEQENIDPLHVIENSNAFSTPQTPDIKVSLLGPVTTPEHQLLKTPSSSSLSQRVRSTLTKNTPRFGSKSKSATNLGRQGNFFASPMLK

[15] = cells; type: functional

COC(=O)CCCC1=CC2=CC(=O)C(C)(OC(=O)c3cccs3)C(=O)C2=CN1C1CC1 (stereo unspecified)
active: IC50 [1] 7.17 µM | IC50 [2] 17.3 µM

COC(=O)C[C@H]1CC[C@H]2[C@@H](COc3ccc(NC(=O)Nc4c(C)noc4C)cc3C(=O)N2C)O1
active: AC50 [3] 40.4 µM

C[C@H](CO)N1C[C@H](C)[C@@H](CN(C)Cc2ccc(-c3ccccc3)cc2)Oc2ncc(C#CCN(C)C)cc2C1=O
active: AC50 [3] 20.3 µM

CCCCN(CC)CCNC(=O)c1cc2c(-c3ccc(Cl)cc3)nn(C)c2s1
active: AC50 [4] 21.7 µM | AC50 [5] 6.76 µM | CC50 [6] 13.7 µM | EC50 [7] 0.211 µM | AC50 [8] 23.7 µM | CC50 [9] 12.9 µM | CC50 [10] 55.5 µM | CC50 [11] 5.62 µM | EC50 [12] 8.44 µM | EC50 [13] 0.809 µM | IC50 [14] 229 µM | IC50 [15] 9.15 µM
